Laboratory results as given in ChEMBL document CHEMBL5653631, “A Potent and Selective ULK1 Inhibitor Suppresses Autophagy and Sensitizes Cancer Cells to Nutrient Stress” (iScience, 2018).
Blank lines part the entries; values can stand above or below the compound they belong to.

Assays:
[1] = target: T1, Serine/threonine-protein kinase ULK1 (Homo sapiens) (UniProt O75385); assay: Inhibition of human recombinant ULK1 at 500 nM in presence of ATP by radiometric assay relative to control
T1 sequence (whole entry): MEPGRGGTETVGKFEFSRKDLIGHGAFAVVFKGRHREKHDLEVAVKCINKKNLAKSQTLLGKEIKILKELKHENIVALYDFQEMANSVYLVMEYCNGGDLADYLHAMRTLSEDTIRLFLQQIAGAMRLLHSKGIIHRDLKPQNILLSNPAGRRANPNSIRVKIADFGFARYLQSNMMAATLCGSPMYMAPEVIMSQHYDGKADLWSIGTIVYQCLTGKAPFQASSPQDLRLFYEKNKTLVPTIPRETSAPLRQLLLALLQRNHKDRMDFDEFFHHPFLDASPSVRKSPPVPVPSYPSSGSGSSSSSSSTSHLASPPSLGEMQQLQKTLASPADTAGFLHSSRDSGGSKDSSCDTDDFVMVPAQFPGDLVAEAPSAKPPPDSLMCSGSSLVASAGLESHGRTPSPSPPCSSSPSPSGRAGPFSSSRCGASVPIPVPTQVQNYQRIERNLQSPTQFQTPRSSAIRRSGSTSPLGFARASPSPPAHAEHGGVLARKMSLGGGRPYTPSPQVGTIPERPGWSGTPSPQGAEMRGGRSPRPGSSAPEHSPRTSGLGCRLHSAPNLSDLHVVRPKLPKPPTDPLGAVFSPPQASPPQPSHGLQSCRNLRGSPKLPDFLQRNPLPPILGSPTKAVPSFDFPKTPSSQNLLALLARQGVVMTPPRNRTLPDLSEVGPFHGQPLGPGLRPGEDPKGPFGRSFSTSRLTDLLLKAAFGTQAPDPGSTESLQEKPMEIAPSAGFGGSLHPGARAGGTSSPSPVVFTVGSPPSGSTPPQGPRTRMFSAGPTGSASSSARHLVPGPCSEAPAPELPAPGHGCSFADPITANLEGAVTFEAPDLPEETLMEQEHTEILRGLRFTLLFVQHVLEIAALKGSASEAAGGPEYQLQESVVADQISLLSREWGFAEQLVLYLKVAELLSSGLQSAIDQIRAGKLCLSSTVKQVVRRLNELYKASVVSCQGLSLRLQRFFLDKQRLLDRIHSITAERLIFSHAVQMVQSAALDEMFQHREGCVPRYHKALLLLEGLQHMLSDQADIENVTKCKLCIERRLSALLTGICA

[2] = target: cAMP-dependent protein kinase catalytic subunit alpha (Homo sapiens) (UniProt P17612); assay: Inhibition of human recombinant PKACalpha at 500 nM related to control ULK1
[3] = target: Focal adhesion kinase 1 (Homo sapiens) (UniProt Q05397); assay: Inhibition of human recombinant FAK at 500 nM related to control ULK1
[4] = target: T2, Protein kinase C epsilon type (Homo sapiens) (UniProt Q02156); assay: Inhibition of human recombinant PKCe at 40 nM related to control ULK1
T2 sequence (whole entry): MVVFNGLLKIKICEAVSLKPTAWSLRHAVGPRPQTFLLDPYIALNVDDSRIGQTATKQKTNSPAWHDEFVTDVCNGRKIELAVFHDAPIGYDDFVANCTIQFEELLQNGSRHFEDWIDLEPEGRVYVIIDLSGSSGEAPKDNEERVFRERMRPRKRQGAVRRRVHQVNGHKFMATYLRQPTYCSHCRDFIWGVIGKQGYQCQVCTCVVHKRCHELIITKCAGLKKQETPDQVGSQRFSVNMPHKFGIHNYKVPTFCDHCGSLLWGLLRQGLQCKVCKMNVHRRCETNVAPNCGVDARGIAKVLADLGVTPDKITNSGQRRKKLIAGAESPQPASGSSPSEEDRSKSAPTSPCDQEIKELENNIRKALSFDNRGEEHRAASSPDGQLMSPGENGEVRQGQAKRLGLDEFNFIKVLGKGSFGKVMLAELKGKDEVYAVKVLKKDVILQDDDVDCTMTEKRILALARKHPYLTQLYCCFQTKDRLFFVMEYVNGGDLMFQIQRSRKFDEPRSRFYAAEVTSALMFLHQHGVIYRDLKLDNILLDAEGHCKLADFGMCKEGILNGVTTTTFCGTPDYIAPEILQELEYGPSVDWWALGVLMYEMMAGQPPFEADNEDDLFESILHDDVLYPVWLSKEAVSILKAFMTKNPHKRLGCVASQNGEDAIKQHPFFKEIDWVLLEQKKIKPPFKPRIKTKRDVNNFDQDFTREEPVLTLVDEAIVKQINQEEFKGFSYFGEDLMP

[5] = target: Mitogen-activated protein kinase kinase kinase kinase 4 (Homo sapiens) (UniProt O95819); assay: Inhibition of human recombinant HGK at 40 nM related to control ULK1
[6] = target: Hepatocyte growth factor receptor MET (Homo sapiens) (UniProt P08581); assay: Inhibition of human recombinant MET at 40 nM in presence of ATP by radiometric assay relative to control
[7] = target: Tyrosine-protein kinase HCK (Homo sapiens) (UniProt P08631); assay: Inhibition of human recombinant HCK at 15 nM related to control ULK1
[8] = target: Calcium/calmodulin-dependent protein kinase type II subunit beta (Homo sapiens) (UniProt Q13554); assay: Inhibition of human recombinant CaMK2b at 15 nM related to control ULK1
[9] = target: T3, Receptor-interacting serine/threonine-protein kinase 1 (Homo sapiens) (UniProt Q13546); assay: Inhibition of human recombinant RIPK1 at 15 nM related to control ULK1
T3 sequence (whole entry): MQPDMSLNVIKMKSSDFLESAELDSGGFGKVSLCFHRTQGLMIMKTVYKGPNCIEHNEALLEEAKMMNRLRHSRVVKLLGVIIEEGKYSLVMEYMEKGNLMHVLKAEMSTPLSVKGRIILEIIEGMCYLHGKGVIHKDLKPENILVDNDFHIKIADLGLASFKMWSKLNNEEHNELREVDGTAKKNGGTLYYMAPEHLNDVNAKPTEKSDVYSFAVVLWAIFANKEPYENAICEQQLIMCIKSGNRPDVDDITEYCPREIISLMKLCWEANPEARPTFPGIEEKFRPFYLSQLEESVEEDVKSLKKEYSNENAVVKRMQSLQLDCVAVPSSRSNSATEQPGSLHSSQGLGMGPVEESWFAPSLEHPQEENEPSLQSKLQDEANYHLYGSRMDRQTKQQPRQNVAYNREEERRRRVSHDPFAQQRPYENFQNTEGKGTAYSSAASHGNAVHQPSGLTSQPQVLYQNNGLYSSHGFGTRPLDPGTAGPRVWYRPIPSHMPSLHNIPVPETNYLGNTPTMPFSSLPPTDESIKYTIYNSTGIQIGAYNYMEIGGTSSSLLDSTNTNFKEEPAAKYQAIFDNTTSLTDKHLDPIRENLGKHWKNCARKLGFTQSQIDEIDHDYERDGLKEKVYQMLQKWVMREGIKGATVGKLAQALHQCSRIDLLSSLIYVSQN

Sequence of Calcium/calmodulin-dependent protein kinase type II subunit beta (Homo sapiens) (Q13554 whole entry): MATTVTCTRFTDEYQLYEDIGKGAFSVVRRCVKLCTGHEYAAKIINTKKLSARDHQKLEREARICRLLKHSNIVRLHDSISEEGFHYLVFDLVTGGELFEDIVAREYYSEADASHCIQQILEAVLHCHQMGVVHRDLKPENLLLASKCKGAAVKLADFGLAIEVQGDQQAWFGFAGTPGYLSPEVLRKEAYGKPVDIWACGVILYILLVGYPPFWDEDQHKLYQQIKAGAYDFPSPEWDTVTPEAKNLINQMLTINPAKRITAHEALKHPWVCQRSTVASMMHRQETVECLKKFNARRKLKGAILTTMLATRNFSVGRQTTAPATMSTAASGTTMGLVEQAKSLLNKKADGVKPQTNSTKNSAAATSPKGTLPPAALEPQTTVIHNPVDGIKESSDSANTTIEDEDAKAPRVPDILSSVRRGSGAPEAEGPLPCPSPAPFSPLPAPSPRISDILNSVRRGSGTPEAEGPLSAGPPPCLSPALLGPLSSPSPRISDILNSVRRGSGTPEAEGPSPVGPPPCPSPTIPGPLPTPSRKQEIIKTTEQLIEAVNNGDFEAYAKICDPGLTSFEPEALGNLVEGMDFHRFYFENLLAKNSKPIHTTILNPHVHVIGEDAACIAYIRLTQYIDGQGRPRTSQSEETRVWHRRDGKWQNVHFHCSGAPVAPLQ
Sequence of Tyrosine-protein kinase HCK (Homo sapiens) (P08631 2-526 limits assumed): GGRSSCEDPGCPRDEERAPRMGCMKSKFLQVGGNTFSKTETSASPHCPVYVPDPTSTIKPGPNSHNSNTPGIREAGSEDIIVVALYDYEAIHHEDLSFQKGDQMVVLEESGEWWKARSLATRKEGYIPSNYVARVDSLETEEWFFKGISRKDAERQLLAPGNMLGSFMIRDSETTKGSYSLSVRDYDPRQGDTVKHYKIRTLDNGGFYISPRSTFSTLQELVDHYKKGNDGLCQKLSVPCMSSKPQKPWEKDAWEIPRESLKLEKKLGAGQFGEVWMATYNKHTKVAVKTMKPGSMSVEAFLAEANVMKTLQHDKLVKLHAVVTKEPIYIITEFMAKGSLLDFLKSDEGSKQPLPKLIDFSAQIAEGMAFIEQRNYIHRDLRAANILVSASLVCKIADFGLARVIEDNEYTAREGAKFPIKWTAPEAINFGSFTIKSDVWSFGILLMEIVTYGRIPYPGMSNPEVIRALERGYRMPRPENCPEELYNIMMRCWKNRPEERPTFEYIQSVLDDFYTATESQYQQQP
Sequence of Hepatocyte growth factor receptor MET (Homo sapiens) (P08581 whole entry, looked up): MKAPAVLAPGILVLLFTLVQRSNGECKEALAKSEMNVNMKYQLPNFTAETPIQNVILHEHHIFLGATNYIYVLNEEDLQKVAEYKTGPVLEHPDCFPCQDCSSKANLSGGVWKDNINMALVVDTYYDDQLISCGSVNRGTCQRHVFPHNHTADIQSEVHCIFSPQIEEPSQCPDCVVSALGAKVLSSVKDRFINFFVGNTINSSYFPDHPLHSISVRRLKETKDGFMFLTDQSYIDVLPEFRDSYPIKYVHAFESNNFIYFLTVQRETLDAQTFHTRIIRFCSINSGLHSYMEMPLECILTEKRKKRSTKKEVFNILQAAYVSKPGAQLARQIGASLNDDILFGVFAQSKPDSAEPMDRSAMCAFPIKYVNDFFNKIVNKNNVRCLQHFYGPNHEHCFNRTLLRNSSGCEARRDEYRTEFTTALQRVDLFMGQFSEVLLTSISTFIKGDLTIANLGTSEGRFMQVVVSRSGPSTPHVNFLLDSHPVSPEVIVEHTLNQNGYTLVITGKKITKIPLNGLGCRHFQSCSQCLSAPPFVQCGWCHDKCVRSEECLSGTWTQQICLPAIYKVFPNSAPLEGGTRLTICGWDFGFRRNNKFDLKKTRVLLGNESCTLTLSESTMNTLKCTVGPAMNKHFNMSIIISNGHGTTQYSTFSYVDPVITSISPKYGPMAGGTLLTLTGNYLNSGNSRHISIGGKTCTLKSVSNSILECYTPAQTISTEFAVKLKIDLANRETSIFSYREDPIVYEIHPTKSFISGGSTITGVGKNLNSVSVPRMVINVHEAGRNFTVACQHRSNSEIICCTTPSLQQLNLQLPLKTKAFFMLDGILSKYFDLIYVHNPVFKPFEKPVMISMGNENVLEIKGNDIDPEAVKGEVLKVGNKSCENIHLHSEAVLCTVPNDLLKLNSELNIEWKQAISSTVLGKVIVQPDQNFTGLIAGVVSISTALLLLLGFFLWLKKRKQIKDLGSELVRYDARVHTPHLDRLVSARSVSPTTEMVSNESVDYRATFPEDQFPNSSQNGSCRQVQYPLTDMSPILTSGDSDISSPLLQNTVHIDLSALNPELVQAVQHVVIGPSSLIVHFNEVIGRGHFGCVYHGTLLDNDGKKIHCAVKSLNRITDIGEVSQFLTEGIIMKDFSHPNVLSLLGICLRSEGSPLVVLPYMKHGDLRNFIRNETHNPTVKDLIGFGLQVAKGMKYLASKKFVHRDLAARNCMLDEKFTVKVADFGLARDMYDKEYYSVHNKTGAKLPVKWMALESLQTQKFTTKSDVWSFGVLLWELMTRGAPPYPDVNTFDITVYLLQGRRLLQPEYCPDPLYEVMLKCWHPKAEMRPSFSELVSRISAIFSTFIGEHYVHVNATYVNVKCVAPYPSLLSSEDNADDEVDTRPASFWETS
Sequence of Focal adhesion kinase 1 (Homo sapiens) (Q05397 2-1052 limits assumed): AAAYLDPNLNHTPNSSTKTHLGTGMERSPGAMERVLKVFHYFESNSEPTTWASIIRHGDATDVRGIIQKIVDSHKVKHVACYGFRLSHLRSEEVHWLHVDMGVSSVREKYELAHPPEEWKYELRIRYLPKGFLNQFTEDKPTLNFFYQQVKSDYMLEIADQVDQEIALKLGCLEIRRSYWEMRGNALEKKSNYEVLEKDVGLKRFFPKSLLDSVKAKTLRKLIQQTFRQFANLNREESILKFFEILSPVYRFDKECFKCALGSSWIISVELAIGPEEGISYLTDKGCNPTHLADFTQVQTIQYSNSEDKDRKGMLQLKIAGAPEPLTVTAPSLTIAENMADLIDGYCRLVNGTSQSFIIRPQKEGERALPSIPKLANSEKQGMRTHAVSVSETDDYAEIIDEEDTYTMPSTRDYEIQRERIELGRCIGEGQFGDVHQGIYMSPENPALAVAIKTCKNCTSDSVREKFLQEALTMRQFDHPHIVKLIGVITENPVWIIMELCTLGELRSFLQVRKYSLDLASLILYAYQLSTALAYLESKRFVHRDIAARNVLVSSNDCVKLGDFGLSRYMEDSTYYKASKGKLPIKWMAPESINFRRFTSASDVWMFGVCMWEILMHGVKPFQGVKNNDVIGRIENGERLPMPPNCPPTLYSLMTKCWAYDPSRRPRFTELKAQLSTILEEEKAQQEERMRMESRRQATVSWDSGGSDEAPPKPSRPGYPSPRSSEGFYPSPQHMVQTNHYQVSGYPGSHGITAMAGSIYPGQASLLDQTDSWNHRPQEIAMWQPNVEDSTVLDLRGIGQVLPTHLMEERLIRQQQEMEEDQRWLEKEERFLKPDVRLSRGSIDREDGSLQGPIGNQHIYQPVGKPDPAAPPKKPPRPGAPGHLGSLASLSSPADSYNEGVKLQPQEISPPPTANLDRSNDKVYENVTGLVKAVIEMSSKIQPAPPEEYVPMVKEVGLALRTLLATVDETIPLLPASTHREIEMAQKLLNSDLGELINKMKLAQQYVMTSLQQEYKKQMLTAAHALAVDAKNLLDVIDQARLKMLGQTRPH
Sequence of Mitogen-activated protein kinase kinase kinase kinase 4 (Homo sapiens) (O95819 2-1239 limits assumed): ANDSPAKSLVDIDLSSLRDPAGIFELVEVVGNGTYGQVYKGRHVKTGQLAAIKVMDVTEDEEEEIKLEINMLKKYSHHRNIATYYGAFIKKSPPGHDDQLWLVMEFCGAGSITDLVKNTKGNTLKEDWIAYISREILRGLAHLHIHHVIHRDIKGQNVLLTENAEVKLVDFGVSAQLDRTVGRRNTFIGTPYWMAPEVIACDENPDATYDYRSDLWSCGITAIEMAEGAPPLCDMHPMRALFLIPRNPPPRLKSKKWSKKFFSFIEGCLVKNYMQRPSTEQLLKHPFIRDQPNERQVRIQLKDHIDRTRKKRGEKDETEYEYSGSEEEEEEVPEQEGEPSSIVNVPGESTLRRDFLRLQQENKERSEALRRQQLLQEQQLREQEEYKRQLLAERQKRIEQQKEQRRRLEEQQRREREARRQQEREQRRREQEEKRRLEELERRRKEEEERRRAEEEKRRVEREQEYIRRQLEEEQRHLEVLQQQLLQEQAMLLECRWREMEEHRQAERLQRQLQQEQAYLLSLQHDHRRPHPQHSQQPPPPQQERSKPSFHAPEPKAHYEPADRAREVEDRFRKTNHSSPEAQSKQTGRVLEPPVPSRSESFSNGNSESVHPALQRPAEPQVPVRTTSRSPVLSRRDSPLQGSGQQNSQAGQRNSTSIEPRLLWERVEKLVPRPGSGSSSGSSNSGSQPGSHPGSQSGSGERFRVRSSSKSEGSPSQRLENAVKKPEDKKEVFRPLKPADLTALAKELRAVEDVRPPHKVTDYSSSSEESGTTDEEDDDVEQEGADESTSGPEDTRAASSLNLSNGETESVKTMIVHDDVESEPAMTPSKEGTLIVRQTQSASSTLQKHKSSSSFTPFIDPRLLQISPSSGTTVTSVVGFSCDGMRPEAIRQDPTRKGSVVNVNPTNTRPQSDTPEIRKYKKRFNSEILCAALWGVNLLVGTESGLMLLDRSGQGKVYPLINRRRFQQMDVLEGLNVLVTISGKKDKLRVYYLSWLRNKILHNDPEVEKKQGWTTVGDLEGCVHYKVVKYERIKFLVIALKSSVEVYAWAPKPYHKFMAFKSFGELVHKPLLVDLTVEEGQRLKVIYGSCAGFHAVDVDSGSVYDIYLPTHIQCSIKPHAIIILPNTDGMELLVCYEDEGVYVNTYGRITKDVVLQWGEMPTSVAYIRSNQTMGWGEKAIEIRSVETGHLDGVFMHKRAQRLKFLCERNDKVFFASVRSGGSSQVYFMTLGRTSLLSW

inhibition [1]: 74% | fold change (FC) [2]: 0 | fold change (FC) [3]: 0.96
Compound: CNC(=O)c1ccccc1Oc1nc(Nc2cc(OC)c(OC)c(OC)c2)ncc1Br

fold change (FC) [4]: 0 | fold change (FC) [5]: 0 | inhibition [6]: 16%
Compound: O=C(N[C@@H](C1CC1)C(F)(F)F)c1cc(-c2cnn3cc(-c4ccc(F)cc4)cnc23)cs1

fold change (FC) [7]: 0.3 | fold change (FC) [8]: 0.11 | fold change (FC) [9]: 0.01
Compound: CC(C)[C@H](NC(=O)c1cc(-c2cnn3cc(-c4ccc(OCCN5CCCCC5)cc4)cnc23)cs1)C(F)(F)F
